Data set [1] relates to Two-Spotted Spider Mite. As to the kind of experiment: Biological Method D: Foliar Insecticidal Activity Test, mite test. In kind it is in vivo, Tetranychus urticae. Also noted: key to LC50 TSM: I = inactive at concentration listed. Particulars: Two-Spotted Spider Mite; for LC50: Tetranychus urticae, foliar, compounds a-r, read-out: LC 50 TSM; for LC50 TSM: Method D foliar test.

The subject of data set [2] is Boll Weevil. As to the kind of experiment: Biological Method D: Foliar Insecticidal Activity Test, boll weevil test. The class given is in vivo, Anthonomous grandis. Also noted: key: I = inactive at concentration tested. The note with it: compounds a-r. As to the method: (§1) Biological Method D: Foliar Insecticidal Activity Test
(§2) In evaluating the foliar insecticidal activity of the compounds of this invention against insects and mites, the following test procedures were employed.
(§3) Not all compounds were tested at each of the several concentrations stated above. Test concentrations of a compound were selected as those most likely to differentiate dose response of a particular compound toward a particular test insect.
(§4) Initial evaluations were made on one or more of the following pests:
For the boll weevil test, 10 adult weevils were placed in a 0.24 ℓ (0.5 pint) glass Mason jar containing a small cube of apple. The weevils were confined to the jar by fiberglass screen mesh secured by a screw-type rim cap. The jars were then sprayed with the test solution using a rotating turntable; directing the spray through the mesh into the jar. The percentage killed was determined after forty-eight and ninety six hours.
(§5) The mortalities obtained in this manner were plotted on logarithmic probability paper.
(§6) The rotating turntable consists of a fixed, continuously operating spray nozzle under which targets are rotated at a fixed speed and distance. If the target is a Petri dish (such as for the bean beetle, armyworm, mite, or aphid tests), the distance from the nozzle is 38.1 cm (15 inches). If the target is a Mason jar (such as for the boll weevil test), the distance from the nozzle is 17.8 cm (7 inches). The nozzle is located 8 inches from the rotating shaft. The targets on individual platforms revolve around the shaft at 1 revolution per 20 seconds but only a brief portion of this time occurs in the spray path. Targets pass only once under the nozzle and then are removed to drying hoods.
(§7) The nozzle used is a 1/4 JCO Spraying Systems (Wheaton, Illinois) air atomizing nozzle equipped with a No. 2850 fluid cap and a No. 70 air cap. At the 68.95 x 10³ Pa gauge (10 psig) air pressure used and with liquid siphon feed, 1.89 ℓ/hr [0.5 GPH (gallons per hour)] are delivered in a round spray pattern with a 21 degree spray angle. Targets are misted with spray droplets to the point that the droplets coalesce to form a uniform thin film insufficient to drown test organisms.

For data set [3], the system named is Green Peach Aphid. As to the kind of experiment: Biological Method D: Foliar Insecticidal Activity Test, aphid test. The class given is in vivo, Myzus persicae. The arrangement: key: I = inactive at concentration tested. Particulars: compounds a-r. As to the method: as §1, §2, §3, §4
For the aphid test, infested broccoli (Brassica oleracea italica var. DiCicco) leaves containing about 50 aphids were placed in a Petri dish lid on a moistened piece of cotton. The leaves were then sprayed to thorough wetness with the test solution using a rotating turntable, held for twenty-four hours and then the percentage killed was determined.
as §5, §6, §7

In data set [4] the test system is Southern Armyworm. As to the kind of experiment: Biological Method D: Foliar Insecticidal Activity Test, Southern Armyworm test. The class given is in vivo, Spodoptera eridania. Particulars: compounds a-r. The arrangement: key: I = inactive at concentration tested. As to the method: as §1, §2, §3, §4
For the Mexican Bean Beetle and Southern armyworm tests, individual lima bean (Phaseolus limeniss var. Woods' Prolific) leaves were placed on moistened pieces of filter paper in Petri dishes. The leaves were then sprayed with the test solution using a rotating turntable and allowed to dry. The dishes were then infested with 10 third instar larvae of either the Mexican Been Beetle or the Southern Armyworm. The dishes were then covered. Percent mortality was determined for each species and spray concentration at 48 and 96 hours after treatment.
as §5, §6, §7

Data set [5] relates to Mexican Bean Beetle. As to the kind of experiment: Biological Method D: Foliar Insecticidal Activity Test, Mexican Bean Beetle test. In kind it is in vivo, Epilachna varivestis. Also noted: key to LC50 BB 96 hrs / LC50 BB 48 hrs.: I = inactive at concentration listed. Particulars: Mexican Bean Beetle; for LC50: Epilachna varivestis.
In data set [6] the test system is Boll Weevil. As to the kind of experiment: Biological Method D: Foliar Insecticidal Activity Test, boll weevil test. In kind it is in vivo, Anthonomous grandis. Particulars: Boll Weevil; 96 hrs; compounds a-r.
The subject of data set [7] is Green Peach Aphid. Nature of the data set: Biological Method D: Foliar Insecticidal Activity Test, aphid test. The arrangement: key: I = inactive at concentration listed. In kind it is in vivo, Myzus persicae.
Data set [8] deals with Southern Armyworm. Nature of the data set: Biological Method D: Foliar Insecticidal Activity Test, Southern Armyworm test. The class given is in vivo, Spodoptera eridania. The arrangement: key: I = inactive at concentration listed.
Data set [9] deals with Japanese beetle (Popillia japonica ) eggs. As to the kind of experiment: Biological Method E: Turf Grub Insecticidal Activity Test. The note with it: soil incorporation. The class given is in vivo. As to the method: Biological Method E: Turf Grub Insecticidal Activity Test
These will give soil concentrations of […] (1.6, 0.8, 0.4, and 0.2 pounds per acre), respectively.
Ten milliliters of test solution were incorporated into 250 ml of moistened soil (clay loam, 90% : humus soil, 10%) and allowed to air in an uncapped pint jar for about 2 hours. After airing, a small amount of seed mixture containing equal parts of redtop (Agrostis alba ) and white clover (Trifolium repens ) was incorporated into the soil. Two 50 ml quantities of soil were placed into dep 88.72 cm³ (3 ounce) ointment tin cans.
Ten Japanese beetle (Popillia japonica ) eggs were placed into the soil in each can and the can capped with its tined lid. Treatments were held for 23 days at 30 degrees Centigrade.
Upon termination, the soil was sieved to isloate the grubs. The percent mortality was determined for each concentration.

The test system of data set [10] is southern corn rootworm, Diabrotica undecimpunctata howardi. Particulars: at-planting soil application.
For data set [11] the test system is unchanged. As to the kind of experiment: Biological Method A: Corn Rootworm Screening Test (treated non-aggressive soil). Particulars: soil concentration giving 90% mortality, 10 days at 27°C.
In data set [12] the test system is Boll Weevil. As to the kind of experiment: Biological Method D: Foliar Insecticidal Activity Test, boll weevil test. The class given is in vivo, Anthonomous grandis. The arrangement: key: I = inactive at concentration listed.
In data set [13] the test system is southern corn rootworm, Diabrotica undecimpunctata howardi. The note with it: Diabrotica undecimpunctata, in Zea mays, foliar, 336 h, read-out: foliar systemic nonagressive Method B crw % control at 0.56 kg/ha (0.5 lb/acre).
Setting [14] is: foliar, 48 hrs, compounds a-r, read-out: LC 50 BB 48 hrs.
Where [15] appears, read: foliar, 96 hrs, compounds a-r, read-out: LC 50 BB 96 hrs.
Where [16] appears, read: 23 days at 30 degrees Centigrade.
Setting [17] is: Method D foliar test, 96 hrs, read-out: LC50 BB 96 hrs.

The text below walks through data of patent EP0437336B1, “Biophosphoryl hydrazines and their use as pesticides” (priority 1990, dated 1991).

In brackets after ≈: the same amount, converted by molar mass. Where two headings read alike, the source gives them in different places.

In the case of `CCCOP(=S)(NN(C)P(=S)(OCC)OCC)OCCC` [d], the LC50 in [1] was 150 µg/mL (≈ 396 µM). Besides, in data set [2], the “LC50 BW 48 hrs” value is given as “I” and the “LC50 BW 96 hrs” value was “I”. The “LC50 GPA” value in data set [3] is on record as “I”. Moreover, in [4], the “LC50 AW 48 hrs” value is recorded as “I” and the “LC50 AW 96 hrs” value was “I”. Also, the LC50 in data set [5] (setting [14]) was determined as 150 µg/mL (≈ 396 µM). In addition, in data set [5] (setting [15]), the LC50 was 150 µg/mL (≈ 396 µM).

Regarding `CCOP(=O)(NN(C)P(=S)(OC)OC)SC(C)CC` (stereo not shown) [l, N-(O,O-dimethylthiophosphoryl) N'-(O-ethyl S-secbutyl chloro phosphoryl) N-methyl hydrazine], the LC50 in data set [1] was determined as 660 µg/mL (≈ 1880 µM). Besides, the “LC50 BW 96 hrs” value in [6] was determined as 740 ppm. Moreover, the “LC50 BW 48 hrs” value in data set [2] is on record as “I”. The “LC50 GPA” value in data set [3] is recorded as “I”. Further, in data set [4], the “LC50 AW 48 hrs” value is “I” and the “LC50 AW 96 hrs” value was “I”.

Take `CCOP(=S)(NN(C(=O)OC)P(=S)(OCC)OCC)OCC` [o]: the LC50 in [1] came to 150 µg/mL (≈ 380 µM); in data set [5] (setting [14]), 52 µg/mL (≈ 132 µM); in [5] (setting [15]), 45 µg/mL (≈ 114 µM). For the same compound, the “LC50 BW 96 hrs” value in [6] stood at 740 ppm. The “LC50 BW 48 hrs” value in data set [2] is listed as “I”. Moreover, in data set [3], the “LC50 GPA” value was “I”. The “LC50 AW 48 hrs” value in [4] is on record as “I”. Besides, the “LC50 AW 96 hrs” value in data set [4] was “I”.

Consider `CCOP(=S)(NNP(=S)(OCC)OC(C)C)OCC(C)(C)C` (stereo not shown) [Compound 46, N-(O-ethyl O-isopropylthiophosphoryl) N′-(O-ethyl O-neopentylthiophosphoryl) hydrazine], for which, in data set [1], the “LC50 TSM” value is “I”. Further, the “LC50 GPA” value in [7] is on record as “I”. Moreover, in [8], the “LC50 AW 48 hrs” value is reported as “I”. The “LC50 AW 96 hrs” value in [8] is reported as “I”. Also, the LC95 is below 0.22 kg/ha in data set [9] (setting [16]) and below 0.2 pounds per acre in [9] (23 days, value in brackets). The LC50 in data set [5] (setting [17]) was found to be 45 µg/mL (≈ 115 µM). For the same compound, the “LC50 BB 48 hrs.” value in [5] (Method D foliar test, 48 hrs) was “I”. Moreover, the “secondary aggressive Method C crw LC50” value was determined as 0.34 kg/ha in data set [10] (rated 17 days post-infestation) and 0.30 lb/acre in [10] (value in brackets). Further, the “primary nonagressive Method A crw LC90” value in [11] turned out to be 0.08 ppm. The “LC50 BW 48 hrs” value in data set [12] is “I”. For the same compound, the “LC50 BW 96 hrs” value in [12] is “I”.

In the case of `CCOP(=S)(OCC(C)(C)C)N(C)NP(=S)(OC)OC` (stereo not shown) [i, N-(O,O-dimethylthiophosphoryl) N′-(O-ethyl O-neopentylthiophosphoryl) N′-methyl hydrazine], the LC50 in data set [1] is 150 µg/mL (≈ 412 µM). Moreover, in data set [2], the “LC50 BW 48 hrs” value was “I” and the “LC50 BW 96 hrs” value is listed as “I”. Further, the “LC50 GPA” value in data set [3] is “I”. Moreover, in [4], the “LC50 AW 48 hrs” value was “I” and the “LC50 AW 96 hrs” value is on record as “I”.

For the compound `CCCOP(=S)(NNP(=S)(OCC)OCC(C)(C)C)OCCC` (stereo not shown) [Compound 41, N-(O,O-dipropylthiophosphoryl) N′-(O-ethyl O-neopentylthiophosphoryl) hydrazine], in [1], the “LC50 TSM” value is given as “I”. Besides, the “LC50 GPA” value in data set [7] is given as “I”. Further, the “LC50 AW 48 hrs” value in [8] is “I”. In data set [8], the “LC50 AW 96 hrs” value is “I”. For the same compound, in [13], the pest or weed control at 560 g/ha was determined as 31%. Further, the LC95 in data set [9] (setting [16]) is reported as below 0.22 kg/ha; in [9] (23 days, value in brackets) it was below 0.2 pounds per acre. The LC50 in [5] (Method D foliar test, 48 hrs, read-out: LC50 BB 48 hrs.) amounted to 62 µg/mL (≈ 153 µM); in [5] (setting [17]), 78 µg/mL (≈ 192 µM). In addition, the “secondary aggressive Method C crw LC50” value in [10] (rated 17 days post-infestation) came out at 0.3 kg/ha; in data set [10] (value in brackets), 0.27 lb/acre. For the same compound, in [11], the “primary nonagressive Method A crw LC90” value worked out at 0.06 ppm. Moreover, in data set [12], the “LC50 BW 48 hrs” value is given as “I”. Besides, in data set [12], the “LC50 BW 96 hrs” value was “I”.
